Drawing on US9278922B2 (ABBVIE INC., priority 2009, dated 2016), this text covers EC50 for 14 molecules.

For the assay, the system named is HCV 1b-Con-1 replicon. Put plainly: HCV 1b-Con-1 replicon assay (luciferase reporter gene, HuH-7 cells). The assay is classed as cell-based, Hepatitis C virus (HCV) genotype 1b-Con1. As to conditions: Hepatitis C virus, Huh-7, luciferase reporter gene activity in the replicon, in the presence of 5% FBS. Background: A replicon is a self-replicating genome or part of one, used to study replication in cells.

A word on the EC50: it is the midpoint of the concentration-response curve. For `COC(=O)N[C@@H](CCO)C(=O)N1CCC[C@H]1C(=O)Nc1ccc(CN(Cc2ccc(NC(=O)[C@@H]3CCCN3C(=O)[C@H](CCO)NC(=O)OC)cc2)c2ccc(F)cc2)cc1` [Example 134, dimethyl ([(4-fluorophenyl)imino]bis{methanediylbenzene-4,1-diylcarbamoyl(2S)pyrrolidine-2,1-diyl[(2S)-4-hydroxy-1-oxobutane-1,2-diyl]})biscarbamate], the EC50 was 1 to 10 nM.

Take `CCC(CC)[C@H](NC(=O)OC)C(=O)N1CCC[C@H]1C(=O)Nc1ccc(CN(Cc2ccc(NC(=O)[C@@H]3CCCN3C(=O)[C@@H](NC(=O)OC)C(CC)CC)cc2)c2ccc(F)cc2)cc1` [Example 135]: the EC50 was in the range of 1 to 10 nM.

Regarding `COC(=O)N[C@H](C(=O)N1C[C@@H](O)C[C@H]1C(=O)Nc1ccc(CN(Cc2ccc(NC(=O)[C@@H]3C[C@H](O)CN3C(=O)[C@@H](NC(=O)OC)C(C)(C)C)cc2)c2ccc(F)cc2)cc1)C(C)(C)C` [Example 136], the EC50 was < 1 nM.

With `O=C(Nc1ccc(CN(Cc2ccc(NC(=O)[C@@H]3CCCN3C(=O)[C@@H](c3ccccc3)N3CCCCC3)cc2)c2ccc(F)c(F)c2)cc1)[C@@H]1CCCN1C(=O)[C@@H](c1ccccc1)N1CCCCC1` [Example 137, (2S,2′S)-N,N′-{[(3,4-difluorophenyl)imino]bis(methanediylbenzene-4,1-diyl)}bis{1-[(2R)-2-phenyl-2-piperidin-1-ylacetyl]pyrrolidine-2-carboxamide}], the EC50 is < 1 nM.

With `COC(=O)N[C@H](C(=O)N1CC[C@H](O)[C@H]1C(=O)Nc1ccc(CN(Cc2ccc(NC(=O)[C@@H]3[C@@H](O)CCN3C(=O)[C@@H](NC(=O)OC)C(C)(C)C)cc2)c2ccc(F)cc2)cc1)C(C)(C)C` [Example 141], the EC50 lay in the range of 10 to 100 nM.

On to `COC(=O)N[C@H](C(=O)N1C(C)CC[C@H]1C(=O)Nc1ccc(CN(Cc2ccc(NC(=O)[C@@H]3CCC(C)N3C(=O)[C@H](NC(=O)OC)C(C)(C)C)cc2)c2ccc(F)cc2)cc1)C(C)(C)C` (stereo partly drawn) [Example 142, methyl [(1R)-1-{[(2S)-2-{[4-({(4-fluorophenyl)[4-({[(2S)-1-{(2S)-2-[(methoxycarbonyl)amino]-3,3-dimethylbutanoyl}-5-methylpyrrolidin-2-yl]carbonyl}amino)benzyl]amino}methyl)phenyl]carbamoyl}-5-methylpyrrolidin-1-yl]carbonyl}-2,2-dimethylpropyl]carbamate], for which the EC50 is < 1 nM.

As for `COC(=O)N[C@H](C(=O)N1CCC[C@H]1C(=O)Nc1cccc(CN(Cc2cccc(NC(=O)[C@@H]3CCCN3C(=O)[C@@H](NC(=O)OC)C(C)(C)C)c2)c2ccc(F)cc2)c1)C(C)(C)C` [Example 143, dimethyl ([(4-fluorophenyl)imino]bis{methanediylbenzene-3,1-diylcarbamoyl(2S)pyrrolidine-2,1-diyl[(2S)-3,3-dimethyl-1-oxobutane-1,2-diyl]})biscarbamate], the EC50 is < 1 nM.

Regarding `COC(=O)N1CCOC[C@H]1C(=O)N1CCC[C@H]1C(=O)Nc1ccc(CN(Cc2ccc(NC(=O)[C@@H]3CCCN3C(=O)[C@@H]3COCCN3C(=O)OC)cc2)c2ccc(F)cc2)cc1` [Example 144, dimethyl (3S,3′S)-3,3′-{[(4-fluorophenyl)imino]bis[methanediylbenzene-4,1-diylcarbamoyl(2S)pyrrolidine-2,1-diylcarbonyl]}dimorpholine-4-carboxylate], the EC50 fell in the range of 100 to 250 nM.

On to `COC(=O)N[C@H](C(=O)N1CC[C@H](C)[C@H]1C(=O)Nc1ccc(CN(Cc2ccc(NC(=O)[C@@H]3[C@@H](C)CCN3C(=O)[C@@H](NC(=O)OC)C(C)(C)C)cc2)c2ccc(F)cc2)cc1)C(C)(C)C` [Example 145], for which the EC50 was < 1 nM.

For `COC(=O)N[C@H](C(=O)N1CCC[C@H]1C(=O)Nc1cccc(CN(Cc2cccc(NC(=O)[C@@H]3CCCN3C(=O)[C@@H](NC(=O)OC)C(C)C)c2)c2ccc(F)cc2)c1)C(C)C` [Example 146, dimethyl ([(4-fluorophenyl)imino]bis{methanediylbenzene-3,1-diylcarbamoyl(2S)pyrrolidine-2,1-diyl[(2S)-3-methyl-1-oxobutane-1,2-diyl]})biscarbamate], the EC50 was 1 to 10 nM.

For `COC(=O)N[C@H](C(=O)N1CCC[C@H]1C(=O)Nc1cc(CN(Cc2ccc(OC)c(NC(=O)[C@@H]3CCCN3C(=O)[C@@H](NC(=O)OC)C(C)(C)C)c2)c2ccc(F)cc2)ccc1OC)C(C)(C)C` [Example 147, dimethyl ([(4-fluorophenyl)imino]bis{methanediyl(6-methoxybenzene-3,1-diyl)carbamoyl(2S)pyrrolidine-2,1-diyl[(2S)-3,3-dimethyl-1-oxobutane-1,2-diyl]})biscarbamate], the EC50 was 100 to 250 nM.

Take `COC(=O)N[C@H](C(=O)N1CCC[C@H]1c1nc2cc(CN(Cc3ccc4oc([C@@H]5CCCN5C(=O)[C@@H](NC(=O)OC)C(C)C)nc4c3)c3ccccc3)ccc2o1)C(C)C` [Example 148, methyl [(1S)-1-{[(2S)-2-(5-{[({2-[(2S)-1-{(2S)-2-[(methoxycarbonyl)amino]-3-methylbutanoyl}pyrrolidin-2-yl]-1,3-benzoxazol-5-yl}methyl)(phenyl)amino]methyl}-1,3-benzoxazol-2-yl)pyrrolidin-1-yl]carbonyl}-2-methylpropyl]carbamate]: the EC50 was 100 to 250 nM.

As to `COC(=O)N[C@H](C(=O)N1CCC[C@H]1/C=C/c1ccc(CN(Cc2ccc(NC(=O)[C@@H]3CCCN3C(=O)[C@@H](NC(=O)OC)C(C)(C)C)cc2)c2ccccc2)cc1)C(C)(C)C` [Example 149, N-(methoxycarbonyl)-3-methyl-L-valyl-N-(4-{[{4-[(E)-2-{(2S)-1-[N-(methoxycarbonyl)-3-methyl-L-valyl]pyrrolidin-2-yl}ethenyl]benzyl}(phenyl)amino]methyl}phenyl)-L-prolinamide], the concentration for a half-maximal effect (EC50) lay in the range of 10 to 100 nM.

With `O=C(Nc1ccc(CN(Cc2ccc(NC(=O)[C@@H]3CCCN3C(=O)O[C@H]3CCOC3)cc2)c2ccccc2)cc1)[C@@H]1CCCN1C(=O)O[C@H]1CCOC1` [Example 150, di[(3S)-tetrahydrofuran-3-yl](2S,2′S)-2,2′-[(phenylimino)bis(methanediylbenzene-4,1-diylcarbamoyl)]dipyrrolidine-1-carboxylate], the EC50 fell in the range of 10 to 100 nM.
